Starred links: 1 amine or outer side, 2 acyl side, 3 side chain; linkers in the order of their positions; H or OH if unused. Non-standard residues stand in square brackets, D forms with d. Residues, ends and D or L forms follow the SMILES beside them. Groups on a side chain read outwards from the residue. *: point of attachment. C18 diacid = O=C(O)CCCCCCCCCCCCCCCCC(=O)*; γGlu = O=C(O)[C@H](CCC(=O)[*:2])N[*:1]; αMeF = C[C@](N)(Cc1ccccc1)C(=O)O; PEG4 = NCCOCCOCCOCCOCCC(=O)O; PEG2 = NCCOCCOCCC(=O)O; AEEA = NCCOCCOCC(=O)O; Aib = CC(C)(N)C(=O)O
What was measured:
[1] = target: human glucagon receptor (hGCGR) (Homo sapiens, UniProt P47871); assay: cAMP production (HTRF) in CHO cells expressing hGCGR; format: cell-based; parameters: expressed in transfected cells; conditions: Table 7, peptides modified at position 20; cAMP in CHO hGCGR cells; geometric mean; read-out: hGluc-R EC50
human glucagon receptor (hGCGR), sequence (P47871 26-477): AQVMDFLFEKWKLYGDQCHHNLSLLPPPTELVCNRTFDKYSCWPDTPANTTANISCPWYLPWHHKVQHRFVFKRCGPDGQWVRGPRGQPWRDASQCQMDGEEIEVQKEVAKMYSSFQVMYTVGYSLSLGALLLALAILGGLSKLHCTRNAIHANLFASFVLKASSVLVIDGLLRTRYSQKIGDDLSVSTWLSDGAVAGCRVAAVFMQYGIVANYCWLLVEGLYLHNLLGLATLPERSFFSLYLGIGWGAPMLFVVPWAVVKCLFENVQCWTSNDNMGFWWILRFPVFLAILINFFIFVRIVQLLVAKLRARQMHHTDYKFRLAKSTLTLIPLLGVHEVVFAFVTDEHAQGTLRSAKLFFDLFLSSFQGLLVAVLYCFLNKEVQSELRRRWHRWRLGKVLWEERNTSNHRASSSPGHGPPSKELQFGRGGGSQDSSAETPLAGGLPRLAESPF
Outline: (§1)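 Potency values represent EC50 from 4-parameter logistic curves of HTRF % Delta F signal. Receptor-expressing CHO cells (hGCGR 2×10^5 cells/mL, hGLP-1R 1×10^5 cells/mL) were exposed for 30 min at room temperature before two-step cAMP detection.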

[2] = target: human GLP-1 receptor (hGLP-1R) (Homo sapiens, UniProt P43220); assay: cAMP production (HTRF) in CHO cells expressing hGLP-1R; format: cell-based; parameters: expressed in transfected cells; conditions: for EC50: Table 7, peptides modified at position 20, cAMP in CHO hGLP-1R cells, geometric mean, read-out: hGLP-1R EC50; for % Relative Potency Ratio: Table 7, % GLP-1R activity relative to GLP-1 / % GlucR activity relative to glucagon
human GLP-1 receptor (hGLP-1R), sequence (P43220 24-463): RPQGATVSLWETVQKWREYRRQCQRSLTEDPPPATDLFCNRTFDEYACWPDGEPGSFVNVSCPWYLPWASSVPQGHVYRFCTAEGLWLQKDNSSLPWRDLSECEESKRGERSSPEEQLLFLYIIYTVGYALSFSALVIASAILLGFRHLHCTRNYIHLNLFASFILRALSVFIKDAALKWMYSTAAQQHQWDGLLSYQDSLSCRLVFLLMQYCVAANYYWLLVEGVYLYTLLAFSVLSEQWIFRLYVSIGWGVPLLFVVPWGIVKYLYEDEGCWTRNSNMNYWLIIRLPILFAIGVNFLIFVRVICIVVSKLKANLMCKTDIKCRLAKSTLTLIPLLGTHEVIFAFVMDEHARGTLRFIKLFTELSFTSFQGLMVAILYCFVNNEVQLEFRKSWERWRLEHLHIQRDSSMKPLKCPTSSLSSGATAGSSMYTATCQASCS
Outline: as §1

Structure (SMILES)	EC50 [1] [nM]	EC50 [2] [nM]	% Relative Potency Ratio [2]
CC[C@H](C)[C@H](NC(=O)C(C)(C)NC(=O)[C@H](CCC(N)=O)NC(=O)[C@@H](NC(=O)[C@](C)(Cc1ccccc1)NC(=O)[C@H](CC(=O)O)NC(=O)[C@H](CCCCNC(=O)CCOCCOCCNC(=O)CCOCCOCCNC(=O)CC[C@H](NC(=O)CC[C@H](NC(=O)CCCCCCCCCCCCCCCCC(=O)O)C(=O)O)C(=O)O)NC(=O)[C@H](C)NC(=O)[C@H](C)NC(=O)[C@H](CCCNC(=N)N)NC(=O)[C@H](CO)NC(=O)[C@H](CC(=O)O)NC(=O)[C@H](CC(C)C)NC(=O)[C@](C)(Cc1ccccc1)NC(=O)[C@H](CCCCN)NC(=O)[C@H](CO)NC(=O)[C@@H](NC(=O)[C@H](CC(=O)O)NC(=O)[C@H](CO)NC(=O)[C@@H](NC(=O)[C@](C)(Cc1ccccc1)NC(=O)[C@H](CO)NC(=O)CNC(=O)[C@H](Cc1c[nH]cn1)NC(=O)C(C)(C)NC(=O)[C@@H](N)Cc1c[nH]cn1)[C@@H](C)O)C(C)C)C(C)C)C(=O)N[C@@H](C)C(=O)N[C@@H](CC(N)=O)C(=O)N[C@H](C(N)=O)[C@@H](C)O [Peptide 258] (H-H[Aib]HGS[αMeF]TSDVSK[αMeF]LDSRAAK([PEG2-PEG2-γGlu-γGlu-C18 diacid])D[αMeF]VQ[Aib]IANT-NH2; N-terminus assumed)	0.0931	0.034	5.4
CC[C@H](C)[C@H](NC(=O)C(C)(C)NC(=O)[C@H](CCC(N)=O)NC(=O)[C@@H](NC(=O)[C@](C)(Cc1ccccc1)NC(=O)[C@H](CC(=O)O)NC(=O)[C@H](CCCCNC(=O)COCCOCCNC(=O)CC[C@H](NC(=O)COCCOCCNC(=O)CCCCCCCCCCCCCCCCC(=O)O)C(=O)O)NC(=O)[C@H](C)NC(=O)[C@H](C)NC(=O)[C@H](CCCNC(=N)N)NC(=O)[C@H](CO)NC(=O)[C@H](CC(=O)O)NC(=O)[C@H](CC(C)C)NC(=O)[C@](C)(Cc1ccccc1)NC(=O)[C@H](CCCCN)NC(=O)[C@H](CO)NC(=O)[C@@H](NC(=O)[C@H](CC(=O)O)NC(=O)[C@H](CO)NC(=O)[C@@H](NC(=O)[C@](C)(Cc1ccccc1)NC(=O)[C@H](CO)NC(=O)CNC(=O)[C@H](Cc1c[nH]cn1)NC(=O)C(C)(C)NC(=O)[C@@H](N)Cc1c[nH]cn1)[C@@H](C)O)C(C)C)C(C)C)C(=O)N[C@@H](C)C(=O)N[C@@H](CC(N)=O)C(=O)N[C@H](C(N)=O)[C@@H](C)O [Peptide 259] (H-H[Aib]HGS[αMeF]TSDVSK[αMeF]LDSRAAK([AEEA-γGlu-AEEA-C18 diacid])D[αMeF]VQ[Aib]IANT-NH2)	0.0348	0.0191	3.6
CC[C@H](C)[C@H](NC(=O)C(C)(C)NC(=O)[C@H](CCC(N)=O)NC(=O)[C@@H](NC(=O)[C@](C)(Cc1ccccc1)NC(=O)[C@H](CC(=O)O)NC(=O)[C@H](CCCCNC(=O)COCCOCCNC(=O)CC[C@H](NC(=O)COCCOCCNC(=O)CC[C@H](NC(=O)CCCCCCCCCCCCCCCCC(=O)O)C(=O)O)C(=O)O)NC(=O)[C@H](C)NC(=O)[C@H](C)NC(=O)[C@H](CCCNC(=N)N)NC(=O)[C@H](CO)NC(=O)[C@H](CC(=O)O)NC(=O)[C@H](CC(C)C)NC(=O)[C@](C)(Cc1ccccc1)NC(=O)[C@H](CCCCN)NC(=O)[C@H](CO)NC(=O)[C@@H](NC(=O)[C@H](CC(=O)O)NC(=O)[C@H](CO)NC(=O)[C@@H](NC(=O)[C@](C)(Cc1ccccc1)NC(=O)[C@H](CO)NC(=O)CNC(=O)[C@H](Cc1c[nH]cn1)NC(=O)C(C)(C)NC(=O)[C@@H](N)Cc1c[nH]cn1)[C@@H](C)O)C(C)C)C(C)C)C(=O)N[C@@H](C)C(=O)N[C@@H](CC(N)=O)C(=O)N[C@H](C(N)=O)[C@@H](C)O [Peptide 260] (H-H[Aib]HGS[αMeF]TSDVSK[αMeF]LDSRAAK([AEEA-γGlu-AEEA-γGlu-C18 diacid])D[αMeF]VQ[Aib]IANT-NH2)	0.0769	0.0331	4.6
CC[C@H](C)[C@H](NC(=O)C(C)(C)NC(=O)[C@H](CCC(N)=O)NC(=O)[C@@H](NC(=O)[C@](C)(Cc1ccccc1)NC(=O)[C@H](CC(=O)O)NC(=O)[C@H](CCCCNC(=O)CCOCCOCCOCCOCCNC(=O)CC[C@H](NC(=O)CCCCCCCCCCCCCCCCC(=O)O)C(=O)O)NC(=O)[C@H](C)NC(=O)[C@H](C)NC(=O)[C@H](CCCNC(=N)N)NC(=O)[C@H](CO)NC(=O)[C@H](CC(=O)O)NC(=O)[C@H](CC(C)C)NC(=O)[C@](C)(Cc1ccccc1)NC(=O)[C@H](CCCCN)NC(=O)[C@H](CO)NC(=O)[C@@H](NC(=O)[C@H](CC(=O)O)NC(=O)[C@H](CO)NC(=O)[C@@H](NC(=O)[C@](C)(Cc1ccccc1)NC(=O)[C@H](CO)NC(=O)CNC(=O)[C@H](Cc1c[nH]cn1)NC(=O)C(C)(C)NC(=O)[C@@H](N)Cc1c[nH]cn1)[C@@H](C)O)C(C)C)C(C)C)C(=O)N[C@@H](C)C(=O)N[C@@H](CC(N)=O)C(=O)N[C@H](C(N)=O)[C@@H](C)O [Peptide 261] (H-H[Aib]HGS[αMeF]TSDVSK[αMeF]LDSRAAK([PEG4-γGlu-C18 diacid])D[αMeF]VQ[Aib]IANT-NH2; N-terminus assumed)	0.0294	0.0162	3.6
CC[C@H](C)[C@H](NC(=O)C(C)(C)NC(=O)[C@H](CCC(N)=O)NC(=O)[C@@H](NC(=O)[C@](C)(Cc1ccccc1)NC(=O)[C@H](CC(=O)O)NC(=O)[C@H](CCCCNC(=O)COCCOCCNC(=O)CC[C@H](NC(=O)CCCCCCCCCCCCCCCCC(=O)O)C(=O)O)NC(=O)[C@H](C)NC(=O)[C@H](C)NC(=O)[C@H](CCCNC(=N)N)NC(=O)[C@H](CO)NC(=O)[C@H](CC(=O)O)NC(=O)[C@H](CC(C)C)NC(=O)[C@](C)(Cc1ccccc1)NC(=O)[C@H](CCCCN)NC(=O)[C@H](CO)NC(=O)[C@@H](NC(=O)[C@H](CC(=O)O)NC(=O)[C@H](CO)NC(=O)[C@@H](NC(=O)[C@](C)(Cc1ccccc1)NC(=O)[C@H](CO)NC(=O)CNC(=O)[C@H](Cc1c[nH]cn1)NC(=O)C(C)(C)NC(=O)[C@@H](N)Cc1c[nH]cn1)[C@@H](C)O)C(C)C)C(C)C)C(=O)N[C@@H](C)C(=O)N[C@@H](CC(N)=O)C(=O)N[C@H](C(N)=O)[C@@H](C)O [Peptide 262] (H-H[Aib]HGS[αMeF]TSDVSK[αMeF]LDSRAAK([AEEA-γGlu-C18 diacid])D[αMeF]VQ[Aib]IANT-NH2)	0.0117	0.013	1.8
CC[C@H](C)[C@H](NC(=O)C(C)(C)NC(=O)[C@H](CCC(N)=O)NC(=O)[C@@H](NC(=O)[C@](C)(Cc1ccccc1)NC(=O)[C@H](CC(=O)O)NC(=O)[C@H](CCCCNC(=O)CCOCCOCCOCCOCCNC(=O)CC[C@H](NC(=O)CC[C@H](NC(=O)CCCCCCCCCCCCCCCCC(=O)O)C(=O)O)C(=O)O)NC(=O)[C@H](C)NC(=O)[C@H](C)NC(=O)[C@H](CCCNC(=N)N)NC(=O)[C@H](CO)NC(=O)[C@H](CC(=O)O)NC(=O)[C@H](CC(C)C)NC(=O)[C@](C)(Cc1ccccc1)NC(=O)[C@H](CCCCN)NC(=O)[C@H](CO)NC(=O)[C@@H](NC(=O)[C@H](CC(=O)O)NC(=O)[C@H](CO)NC(=O)[C@@H](NC(=O)[C@](C)(Cc1ccccc1)NC(=O)[C@H](CO)NC(=O)CNC(=O)[C@H](Cc1c[nH]cn1)NC(=O)C(C)(C)NC(=O)[C@@H](N)Cc1c[nH]cn1)[C@@H](C)O)C(C)C)C(C)C)C(=O)N[C@@H](C)C(=O)N[C@@H](CC(N)=O)C(=O)N[C@H](C(N)=O)[C@@H](C)O [Peptide 263] (H-H[Aib]HGS[αMeF]TSDVSK[αMeF]LDSRAAK([PEG4-γGlu-γGlu-C18 diacid])D[αMeF]VQ[Aib]IANT-NH2)	0.0646	0.0254	–

From patent US20250353891A1 (MEDIMMUNE LIMITED, priority 2022, published 2025)
